Experimental data: ChEMBL document CHEMBL1146337, “Efficient synthesis of substituted 7-methyl-2H,5H-pyrano[4,3-b]pyran-5-ones and evaluation of their in vitro antiproliferative/cytotoxic activities” (Bioorg Med Chem Lett, 2007)
Calls of active or inactive are those of the source. The rule behind the calls is not given here.

How the values were obtained:
SH-SY5Y [1] = experiment: Antiproliferative activity against human SH-SY5Y cells at 25 ug/mL after 24 hrs; assay type: functional
SH-SY5Y [2] = experiment: Cytotoxicity against human SH-SY5Y cells after 24 hrs; assay type: functional, cell-based
SH-SY5Y [3] = experiment: Antiproliferative activity against human SH-SY5Y cells at 50 ug/mL after 24 hrs; assay type: functional
SH-SY5Y [4] = experiment: Antiproliferative activity against human SH-SY5Y cells at 3.13 ug/mL after 24 hrs; assay type: functional
SH-SY5Y [5] = experiment: Antiproliferative activity against human SH-SY5Y cells at 1.56 ug/mL after 24 hrs; assay type: functional
SH-SY5Y [6] = experiment: Antiproliferative activity against human SH-SY5Y cells at 6.25 ug/mL after 24 hrs; assay type: functional
SH-SY5Y [7] = experiment: Antiproliferative activity against human SH-SY5Y cells at 12.5 ug/mL after 24 hrs; assay type: functional
IPC = experiment: Necrotic effect in human IPC cells at 12.5 ug/mL after 3 hrs; assay type: functional, cell-based

Row | SMILES | inhibition at 25 µg/mL (SH-SY5Y [1]) | IC50 (SH-SY5Y [2]) | inhibition at 50 µg/mL (SH-SY5Y [3]) | inhibition at 3.13 µg/mL (SH-SY5Y [4]) | inhibition at 1.56 µg/mL (SH-SY5Y [5]) | inhibition at 6.25 µg/mL (SH-SY5Y [6]) | inhibition at 12.5 µg/mL (SH-SY5Y [7]) | Activity (IPC)
1 | CC(C)=CCCC1(C)C=Cc2c(cc(C)oc2=O)O1 (configuration not stated) | 30.4% | > 200 µM | 37.4% | – | – | – | – | –
2 | Cc1cc2c(c(=O)o1)C=C1C(C)(C)CCCC1(C)O2 (configuration not stated) | 74.2% | 31 µM | 75.1% | 1.11% | 8.34% | 18.4% | 72.9% | –
3 | Cc1cc2c(c(=O)o1)C=C1CCCC1O2 (configuration not stated) | 14.9% | 252 µM | 51.2% | – | – | – | 19.3% | –
4 | Cc1cc2c(c(=O)o1)C=C1C(C[C@H]3C[C@@H]1C3(C)C)O2 (some centres not stated) | 67.8% | 70 µM | 84.1% | – | – | – | 24.4% | –
5 | Cc1cc2c(c(=O)o1)C=C1CCCCC1(C)O2 (configuration not stated) | 11.4% | 185 µM | 60.6% | – | – | – | 1.18% | –
6 | Cc1cc2c(c(=O)o1)C=C(C(C)C)C(CC(C)C)O2 (configuration not stated) | 96.6% | 6.7 µM | 95.7% | 87.5% | 38.5% | 93.8% | 94% | inactive
7 | CC1=Cc2c(cc(C)oc2=O)OC1C (configuration not stated) | 43.8% | 200 µM | 53.8% | – | – | – | – | –
8 | CCCCCCCCC1C=Cc2c(cc(C)oc2=O)O1 (configuration not stated) | 60.1% | 76 µM | 83.3% | – | – | – | 21.1% | –
9 | Cc1cc2c(c(=O)o1)C=C1C(C)(C)CC=CC1(C)O2 (configuration not stated) | 79.8% | 47 µM | 84.8% | 6.01% | – | 16.9% | 51.9% | –
10 | Cc1cc2c(c(=O)o1)C=C(c1ccccc1)C(CC(C)C)O2 (configuration not stated) | 45.7% | 93 µM | 81.7% | – | – | – | 14.6% | –
11 | CCC1C=Cc2c(cc(C)oc2=O)O1 (configuration not stated) | 4.95% | > 200 µM | 43.7% | – | – | – | 3.62% | –
12 | CC1=Cc2c(cc(C)oc2=O)OC1c1ccco1 (configuration not stated) | 64.3% | 49 µM | 64.4% | 21.6% | – | 30.9% | 50.6% | –
